Active and inactive are the calls of the source. No cut-off for these calls is given here.
Assays:
Cerebral cortex neuron [1] = assay: Positive allosteric modulation at AMPA receptor in primary cortical neurons assessed as potentiation of kainate-induced current at 10 uM by patch clamp analysis; format: cell-based
Cerebral cortex neuron [2] = assay: Positive allosteric modulation at AMPA receptor in primary cortical neurons assessed as potentiation of kainate-induced current at 100 uM by patch clamp analysis
[3] = Positive allosteric modulation at AMPA receptor in primary cortical neurons assessed as potentiation of kainate-induced current by patch clamp analysis; format: cell-based; details: Cerebral cortex neuron
[4] = Drug uptake in mouse nucleus accumbens at 20 mg/kg, ip measured after 2 hrs; format: ADME, organism-based; parameters: dose 20 mg/kg, route intraperitoneal; details: in vivo
[5] = Drug uptake in mouse nucleus accumbens assessed as 7-chloro-5-(3-furyl)-3- methyl-4H-1,2,4-benzothiadiazine 1,1-dioxide level at 20 mg/kg, ip measured after 140 mins; format: ADME, organism-based; parameters: dose 20 mg/kg, route intraperitoneal; details: in vivo
[6] = Drug uptake in mouse nucleus accumbens assessed as 7-chloro-5-(3-furyl)-3- methyl-4H-1,2,4-benzothiadiazine 1,1-dioxide level at 20 mg/kg, ip measured after 1 hr; format: ADME, organism-based; parameters: dose 20 mg/kg, route intraperitoneal; details: in vivo, read-out: Drug uptake
[7] = Drug uptake in mouse nucleus accumbens assessed as 7-chloro-5-(3-furyl)-3- methyl-4H-1,2,4-benzothiadiazine 1,1-dioxide level at 20 mg/kg, ip measured after 2 hrs; format: ADME, organism-based; parameters: dose 20 mg/kg, route intraperitoneal; details: in vivo
[8] = Drug uptake in mouse nucleus accumbens at 20 mg/kg, ip measured after 40 mins; format: ADME, organism-based; parameters: dose 20 mg/kg, route intraperitoneal; details: read-out: Drug uptake

## CC1Nc2c(-c3cccs3)cc(Cl)cc2S(=O)(=O)N1 (stereo not given)
Cerebral cortex neuron [1]
  Activity: < 10%
Cerebral cortex neuron [2]
  Activity: inactive

## CC1CN2c3c1cc(Cl)cc3S(=O)(=O)NC2C (racemic)
Cerebral cortex neuron [1]
  Activity: 53%
Cerebral cortex neuron [2]
  Activity: inactive

## CCC1Nc2c(-c3ccc(C(=O)O)cc3)cc(Cl)cc2S(=O)(=O)N1 (stereo not given)
Cerebral cortex neuron [1]
  Activity: < 10%
Cerebral cortex neuron [2]
  Activity: inactive

## Nc1cccc(-c2cc(Cl)cc3c2NCNS3(=O)=O)c1
Cerebral cortex neuron [1]
  Activity: < 10%
Cerebral cortex neuron [2]
  Activity: inactive

## CCC1Nc2c(-c3ccco3)cc(Cl)cc2S(=O)(=O)N1 (stereo not given)
Cerebral cortex neuron [1]
  Activity: < 10%
Cerebral cortex neuron [2]
  Activity: inactive

## O=S1(=O)NCNc2c(-c3ccco3)cc(Cl)cc21
Cerebral cortex neuron [1]
  Activity: 20%
Cerebral cortex neuron [2]
  Activity: inactive

## CC1Nc2c(-c3ccsc3)cc(Cl)cc2S(=O)(=O)N1 (stereo not given)
Cerebral cortex neuron [1]
  Activity: 214%
Cerebral cortex neuron [2]
  Activity: inactive

## CC1Nc2c(-c3ccoc3)cc(Cl)cc2S(=O)(=O)N1 (stereo not given)
[3]
  EC50: 1300 nM
Cerebral cortex neuron [1]
  Activity: 358%
[4]
  Drug uptake: Not Active
[5]
  Drug uptake: Not Active
[6]
  concentration: 8 µM
[7]
  Drug uptake: Active
[8]
  concentration at 40 min: 37 µM
Cerebral cortex neuron [2]
  Activity: inactive

## CC1Nc2c(-c3cccc(N)c3)cc(Cl)cc2S(=O)(=O)N1 (stereo not given)
Cerebral cortex neuron [1]
  Activity: < 10%
Cerebral cortex neuron [2]
  Activity: inactive

## CC1Nc2c(-c3ccc(C(=O)O)cc3)cc(Cl)cc2S(=O)(=O)N1 (stereo not given)
Cerebral cortex neuron [1]
  Activity: < 10%
Cerebral cortex neuron [2]
  Activity: inactive

## O=C(O)c1ccc(-c2cc(Cl)cc3c2NCNS3(=O)=O)cc1
Cerebral cortex neuron [1]
  Activity: < 10%
Cerebral cortex neuron [2]
  Activity: inactive

## CC1Nc2c(-c3ccco3)cc(Cl)cc2S(=O)(=O)N1 (stereo not given)
Cerebral cortex neuron [1]
  Activity: 80%
Cerebral cortex neuron [2]
  Activity: inactive
